Laboratory results published in article PMC10746543, “Design principles for cyclin K molecular glue degraders” (Nature Chemical Biology, 2023).
Several values for one entry are separate records, joined by “and”; a condition that tells them apart may be missing. Identical values can stand only once. Like-named read-outs stand apart in the source and are kept apart here.

Tests used:
[1] = system: HEK293T cells; experiment: Drug sensitivity assay (CellTiter-Glo viability) with or without MLN4924 pretreatment; assay type: cell-based, human; details: Supplementary Table 2; for EC50: Homo sapiens, HEK-293T, HEK293T viability, 72 h, compound alone, read-out: Cellular assays EC50; for Toxicity rescue: MLN4924-mediated cytotoxicity rescue, 10 µM used where n.d.
How it was run: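 Cas9-expressing HEK293T cells receive either vehicle or 100 nM MLN4924, then compounds 2 h afterwards. After three days, luminescence-based viability is measured and calculated relative to DMSO.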

[2] = system: cyclin K–eGFP degradation reporter; experiment: Cyclin K reporter stability analysis (dual-color cyclin K–eGFP reporter); assay type: cell-based, human; details: Supplementary Table 2; HEK293T cycK-eGFP reporter, 5 h; read-out: Cellular assays DC50
How it was run: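 Readout was the eGFP-to-mCherry geometric-mean ratio by flow cytometry, normalized to three DMSO controls, after 5 h drug exposure. Cells used were HEK293T–Cas9 expressing the dual-colour cyclin K–eGFP degradation reporter.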

[3] = biological target: T1, CDK12–cyclin K and DDB1 (Homo sapiens, UniProt Q16531+Q9NYV4, K965R); experiment: TR-FRET ternary complex formation assay (compound titration); assay type: binding; details: for TR-FRET signal at compound concentration: replicate titrations
T1 construct: His6–CDK12 (a.a. 713–1,052); full-length or beta-propeller B domain deletion (ΔBPB: a.a. 396–705 deleted) constructs of His6–DDB1ΔBPB, StrepII–Avi–DDB1, or His6–Spy–DDB1; made in house; host or cells: Trichoplusia ni High Five insect cells (baculovirus)
How it was run: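 A time delay of 70 μs preceded acquisition, limiting background fluorescence; the ratio of emission at 520 versus 490 nm gave the TR-FRET value.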

[4] = compound concentration 79.2001 nM
[5] = compound concentration 158.4 nM
[6] = compound concentration 309.6 nM
[7] = compound concentration 626.401 nM
[8] = compound concentration 1252.8 nM
[9] = compound concentration 9936.01 nM
[10] = compound concentration 20016 nM
[11] = Supplementary Table 2, read-out: TR-FRET EC50 TR-FRET

T1 sequence (Q9NYV4 713-1052 K965R): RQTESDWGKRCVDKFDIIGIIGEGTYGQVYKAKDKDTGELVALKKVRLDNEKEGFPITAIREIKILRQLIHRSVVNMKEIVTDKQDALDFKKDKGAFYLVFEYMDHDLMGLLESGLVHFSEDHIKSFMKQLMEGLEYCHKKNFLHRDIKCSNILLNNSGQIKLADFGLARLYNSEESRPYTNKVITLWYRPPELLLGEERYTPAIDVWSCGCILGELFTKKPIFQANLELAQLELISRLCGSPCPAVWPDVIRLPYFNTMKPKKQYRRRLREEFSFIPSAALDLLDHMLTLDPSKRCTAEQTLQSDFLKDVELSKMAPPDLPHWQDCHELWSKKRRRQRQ
T1 sequence (O75909 1-267 partner): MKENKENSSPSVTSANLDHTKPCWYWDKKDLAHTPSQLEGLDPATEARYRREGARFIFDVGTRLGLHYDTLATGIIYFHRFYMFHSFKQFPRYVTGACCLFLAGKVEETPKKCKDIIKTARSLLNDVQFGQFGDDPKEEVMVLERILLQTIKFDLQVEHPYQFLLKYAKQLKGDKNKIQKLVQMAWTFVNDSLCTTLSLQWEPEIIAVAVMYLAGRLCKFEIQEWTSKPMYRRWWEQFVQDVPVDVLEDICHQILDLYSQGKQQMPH
T1 sequence (Q16531 whole entry): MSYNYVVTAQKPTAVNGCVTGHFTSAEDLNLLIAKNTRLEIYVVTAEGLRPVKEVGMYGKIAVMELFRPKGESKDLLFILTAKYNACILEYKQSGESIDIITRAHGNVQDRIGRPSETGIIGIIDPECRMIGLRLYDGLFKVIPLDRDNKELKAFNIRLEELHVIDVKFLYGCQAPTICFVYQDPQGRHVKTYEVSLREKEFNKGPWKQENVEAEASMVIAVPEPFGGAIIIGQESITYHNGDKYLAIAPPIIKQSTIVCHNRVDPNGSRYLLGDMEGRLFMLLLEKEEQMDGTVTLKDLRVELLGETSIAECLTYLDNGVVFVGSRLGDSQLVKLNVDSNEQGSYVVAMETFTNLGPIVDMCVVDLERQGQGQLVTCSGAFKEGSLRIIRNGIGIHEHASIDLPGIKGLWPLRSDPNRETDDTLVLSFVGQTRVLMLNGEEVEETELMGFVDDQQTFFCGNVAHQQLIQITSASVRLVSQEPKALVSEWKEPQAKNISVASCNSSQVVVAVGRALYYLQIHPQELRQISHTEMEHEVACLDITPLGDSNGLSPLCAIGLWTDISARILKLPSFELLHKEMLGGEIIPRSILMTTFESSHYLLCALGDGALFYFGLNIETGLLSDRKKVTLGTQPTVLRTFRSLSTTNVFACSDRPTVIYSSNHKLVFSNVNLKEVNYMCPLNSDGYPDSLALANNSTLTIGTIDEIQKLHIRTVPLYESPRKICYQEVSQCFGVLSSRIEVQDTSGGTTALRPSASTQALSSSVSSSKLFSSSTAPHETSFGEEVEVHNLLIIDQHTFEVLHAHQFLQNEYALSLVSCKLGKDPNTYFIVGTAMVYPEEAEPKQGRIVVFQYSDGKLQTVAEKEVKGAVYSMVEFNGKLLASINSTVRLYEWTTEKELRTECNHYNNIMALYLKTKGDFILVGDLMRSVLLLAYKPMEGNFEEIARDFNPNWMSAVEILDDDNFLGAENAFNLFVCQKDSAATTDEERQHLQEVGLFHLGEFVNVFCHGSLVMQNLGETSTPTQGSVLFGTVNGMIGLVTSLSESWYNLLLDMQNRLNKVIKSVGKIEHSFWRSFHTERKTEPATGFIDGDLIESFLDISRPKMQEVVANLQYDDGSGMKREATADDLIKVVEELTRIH

Row | SMILES | EC50 [1] | Toxicity rescue [1] | DC50 [2] | EC50 [3, 11] | TR-FRET signal, individual replicate ([3]; compound concentration 4.68 nM) | TR-FRET signal, individual replicate ([3]; compound concentration 21.6 nM) | TR-FRET signal, individual replicate ([3]; compound concentration 36 nM) | TR-FRET signal, individual replicate [3, 4] | TR-FRET signal, individual replicate [3, 5] | TR-FRET signal, individual replicate [3, 6] | TR-FRET signal, individual replicate [3, 7] | TR-FRET signal, individual replicate [3, 8] | TR-FRET signal, individual replicate ([3]; compound concentration 2448 nM) | TR-FRET signal, individual replicate [3, 9] | TR-FRET signal, individual replicate [3, 10] | also measured
1 | CCOCCOCCNc1nc(N[C@H](CC)CO)nc2c1ncn2C(C)C [DS13] | > 10 µM | 0% | > 10 µM |  |  |  |  |  |  |  |  |  |  |  |  | TR-FRET signal ([3]; compound concentration 4.68 nM): 0.1269 and 0.1552; TR-FRET signal ([3]; compound concentration 21.6 nM): 0.1368 and 0.156; TR-FRET signal ([3]; compound concentration 36 nM): 0.1404 and 0.1564; TR-FRET signal [3, 4]: 0.1332 and 0.164; TR-FRET signal [3, 5]: 0.1494 and 0.1683; TR-FRET signal [3, 6]: 0.1517 and 0.1802; TR-FRET signal [3, 7]: 0.1772 and 0.1976; TR-FRET signal [3, 8]: 0.2017 and 0.2255; TR-FRET signal ([3]; compound concentration 2448 nM): 0.2403 and 0.2789; TR-FRET signal [3, 9]: 0.333 and 0.3875; TR-FRET signal [3, 10]: 0.3528 and 0.412; EC50 ([3]; in vitro complex formation, 50 nM CDK12–cyclin K, 100 nM DDB1, text and figures, read-out: TR-FRET EC50): 3230 ± 959 nM
2 | CC[C@H](CO)Nc1nc(NCc2ccc(-c3ccc(-c4ccccc4)cc3)cc2)c2ncn(C(C)C)c2n1 [DS04] | > 10 µM | 0% | > 10 µM |  |  |  |  |  |  |  |  |  |  |  |  | TR-FRET signal at compound concentration ([3]; compound concentration 4.68 nM): 0.1371 and 0.1443; TR-FRET signal at compound concentration ([3]; compound concentration 21.6 nM): 0.1368 and 0.1484; TR-FRET signal at compound concentration ([3]; compound concentration 36 nM): 0.135 and 0.1532; TR-FRET signal at compound concentration [3, 4]: 0.1341 and 0.1519; TR-FRET signal at compound concentration [3, 5]: 0.132 and 0.1491; TR-FRET signal at compound concentration [3, 6]: 0.1322 and 0.1487; TR-FRET signal at compound concentration [3, 7]: 0.1292 and 0.1438; TR-FRET signal at compound concentration [3, 8]: 0.1234 and 0.1372; TR-FRET signal at compound concentration ([3]; compound concentration 2448 nM): 0.1186 and 0.1335; TR-FRET signal at compound concentration [3, 9]: 0.1139 and 0.1272; TR-FRET signal at compound concentration [3, 10]: 0.1066 and 0.1169; DDB1–CDK12 complex formation, result in words ([3]; in vitro TR-FRET): abolished binding
3 | CC[C@H](CO)Nc1nc(NCc2ccc(CN(C)C)cc2)c2ncn(C(C)C)c2n1 [DS07] | > 10 µM | 0% | > 10 µM | 285 nM | 0.1397 and 0.1571 | 0.1381 and 0.1543 | 0.1446 and 0.1595 | 0.1442 and 0.1633 | 0.1697 and 0.1741 | 0.1833 and 0.1813 | 0.2131 and 0.2 | 0.2455 and 0.2204 | 0.2509 and 0.2343 | 0.2701 and 0.2518 | 0.2482 and 0.2271 | EC50 ([3]; sheet MOESM7, read-out: log TR-FRET EC50 (converted)): 285 nM
4 | CC[C@H](CO)Nc1nc(NCC2CCCCC2)c2ncn(C(C)C)c2n1 [DS12] | > 10 µM | 0% | > 10 µM | 774 nM | 0.1383 and 0.1554 | 0.1534 and 0.1726 | 0.171 and 0.1959 | 0.2152 and 0.2381 | 0.2801 and 0.3063 | 0.3618 and 0.4127 | 0.3596 and 0.5492 | 0.6021 and 0.6861 | 0.7207 and 0.8094 | 0.7638 and 0.9453 | 0.8451 and 0.9714 | 
5 | CC[C@H](CO)Nc1nc(NCCC2CC2)c2ncn(C(C)C)c2n1 [DS37] | > 10 µM | 0% | > 10 µM |  | 0.1908 and 0.2636 | 0.201 and 0.2304 | 0.2177 and 0.2395 | 0.2212 and 0.2472 | 0.2411 and 0.2679 | 0.2728 and 0.306 | 0.3075 and 0.349 | 0.3712 and 0.4097 | 0.4307 and 0.4643 | 0.5169 and 0.5543 | 0.5088 and 0.5368 | 
